According to US20110028360A1, “ORGANIC CORROSION INHIBITOR PACKAGE FOR ORGANIC ACIDS” (M-I DRILLING FLUIDS U.K. LIMITED, priority 2008, published 2011):

Columns and labels:
[1] = Biodegradation according to OECD 301B
Experimental: (§1) Propoxylated prop-2-yn-1-ol, as a raw material for the corrosion inhibitor compositions disclosed herein, was tested for ecotoxicology. Biodegradation was measured according to OECD 301B. EC50 Toxicity was measured according to ISO/DP 10253. Bioaccumulation log Pow was measured according to OECD 117.

[2] = Bioaccumulation log Pow according to OECD 117; format: physicochemical
Experimental: as §1

[3] = EC50 Toxicity according to ISO/DP 10253
Experimental: as §1

Biodegradation [1]: 100% (OECD 301B)
Bioaccumulation Log Pow [2]: 2
Substance: propoxylated prop-2-yn-1-ol
Toxicity [3]: 100 mg/L
